Assay results as given in patent US7087252B2, “Medicinal preparation containing phenylethanoid glycosides extracted from herbaceous plant, Cistanche tubulosa (Schrenk.) Wight, process of making the same, and uses of the same” (Sinphar Pharmaceutical Co., Ltd., priority 2003, dated 2006).

How the values were obtained:
[1] = tested on: blood platelets aggregation of rats; assay: ADP-caused aggregation of blood platelets of rats after oral administration; assay type: in vivo, male SD rats; conditions: 100 mg/kg orally for 7 days
Experimental: A study was done on the effect of the preparation of the present invention on aggregation of blood platelets of the rats.
The aggregation of blood platelets was caused by using adenosine disodium diphosphate (ADP). 1 mg/ml ADP solution was kept refrigerated before use. When the ADP solution was about to be used, it was diluted three times with the phosphoric acid buffer solution.
The male SD rats were randomly divided into five groups in accordance with the body weight. These five groups were the distilled water comparative group, the aspirin group, the 200 mg/kg preparation group, the 100 mg/kg preparation group, and the 50 mg/kg preparation group. The drugs were orally administered, with the administration volume being […]. The rats of the distilled water comparative group were given distilled water in same quantity. The administration continued for 7 days. The rats were not fed for 12 hours prior to the final administration. One hour after the final administration the blood was drawn out from the main artery. The blood so draw out was prevented from aggregation by 3.8% sodium citrate (1:9). […] The aggregation degree was determined by using a SPA-4 multifunctional blood platelet aggregation meter. The inhibition rate of the blood platelet aggregation is calculated by the following formula. […]

[2] = tested on: thrombosis of the vein bypass of rats; assay: Thrombosis of the vein bypass of rats; assay type: in vivo, male SD rats; conditions: 100 mg/kg orally
Description: A study was done on the effect of the preparation of the present invention on thrombosis of the vein bypass of the rats. The male SD rats were studied as compared with the aspirin. Thrombosis inhibition rate (%)=(distilled water comparative group thrombosis weight−drug group thrombosis weight)/distilled water comparative group thrombosis weight×100%.

[3] = tested on: memory loss of LACA mice induced by ethanol; assay: Water maze experiment, prevention of memory loss induced by ethanol; assay type: in vivo; conditions: 400 mg/kg, one-week orally
Experimental: The effect of the preparation of the present invention on the prevention of memory loss by the LACA mice was studied by the water maze experiment. The mice were orally administered with the drugs. One hour after such an oral administration, they were provided with 30% ethanol 0.1 ml/10 g BW. In 30 minutes, the water maze experiment was started.

[4] = tested on: learning memory of LACA mice; assay: Water maze experiment, effect on learning memory of mice (d value analysis of response time); assay type: in vivo; conditions: 400 mg/kg orally vs control group; second time test; n = 27
Description: The medicinal preparation of the present invention was used in a water maze experiment to study its effect on the learning memory of LACA mice. The Piracetam Tablets was used as a positive comparative drug for testing 6 days per week. The test lasted for 27 days. According to the data listed in the Table 2, it is readily apparent that the preparation of the present invention has a meaningful effect on the learning memory of the mice, as exemplified by the difference in the response time between the control group and the doped groups, which were respectively doped with 50 mg/kg of the preparation containing phenylethanoid glycosides, 200 mg/kg of the preparation containing phenylethanoid glycosides, and 400 mg/kg of the preparation containing phenylethanoid glycosides.

Compound | aggregation inhibition ([1]; vs distilled water group) | maximum aggregation ([1]; ±SD) | thrombosis inhibition rate ([2]; vs distilled water comparative group) | thrombosis weight ([2]; x ± SD) | Arrival at destination after being trained, Error number [3] | Arrival at destination after being trained, Time [3] | Arrival at destination after being trained, error number of animal [3] | Arrival at destination after being given alcohol, Error number ([3]; 30% ethanol 0.1 ml/10 g BW) | Arrival at destination after being given alcohol, Error rate ([3]; 30% ethanol 0.1 ml/10 g BW) | Arrival at destination after being given alcohol, Group error rate ([3]; 30% ethanol 0.1 ml/10 g BW) | Arrival at destination after being given alcohol, error number of animal ([3]; 30% ethanol 0.1 ml/10 g BW) | d value ≧0.5, % [4] | d value ≧0.5, day [4] | d value ≧0.5 sum, % [4] | d value ≧0.5 sum, day (period when the response time shows meaningful difference) [4] | d value ≧0.8, % [4] | d value ≧0.8, day [4]
CC(=O)Oc1ccccc1C(=O)O [aspirin] | 40.30% | 32.73 ± 11.14 % | 34.97% | 29.2 ± 4.00 mg |  |  |  |  |  |  |  |  |  |  |  |  | 
NC(=O)CN1CCCC1=O [Piracetam] |  |  |  |  | 0/0 | 8.00 ± 0.46 s | 0/0 | 54 | 9.00 times/number of animal | 5.40 times/number of animal | 6 | 18.5% | 5 days | 25.5% | 7 days | 7.4% | 2 days
